This is an account of results in US20250213555A1, “SUBSTITUTED TETRAHYDROFURAN ANALOGS AS MODULATORS OF SODIUM CHANNELS” (VERTEX PHARMACEUTICALS INCORPORATED, priority 2021, published 2025).

Bounds are passed on as bounds.

In the experiment the target is human Nav 1.8 (Homo sapiens, UniProt Q9Y5Y9). The experiment is described as follows: E-VIPR assay detecting and measuring Nav inhibition properties. The following applies: HEK cells expressing a truncated form of human Nav 1.8; compound numbers without "*" (not marked as run in the presence of human serum); read-out: measured IC50 value in the E-VIPR Assay. It is filed as cell-based. In outline: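 Nav inhibition was read by E-VIPR: cells were electrically stimulated while coumarin/oxonol FRET emissions were recorded. Cells were HEK expressing a truncated human Nav 1.8 and co-transduced with KIR2.1, and were assayed in 25% final human serum.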
Chain of human Nav 1.8 (Q9Y5Y9 126-399 limits assumed): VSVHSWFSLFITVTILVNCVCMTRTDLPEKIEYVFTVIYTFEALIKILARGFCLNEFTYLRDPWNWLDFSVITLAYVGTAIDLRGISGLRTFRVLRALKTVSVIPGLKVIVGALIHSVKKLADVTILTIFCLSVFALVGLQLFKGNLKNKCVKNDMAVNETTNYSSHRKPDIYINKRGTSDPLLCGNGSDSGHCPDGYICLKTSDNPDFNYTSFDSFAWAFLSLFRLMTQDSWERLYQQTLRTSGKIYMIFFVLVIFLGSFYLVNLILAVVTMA
Chain of human Nav 1.8 (Q9Y5Y9 660-890 limits assumed): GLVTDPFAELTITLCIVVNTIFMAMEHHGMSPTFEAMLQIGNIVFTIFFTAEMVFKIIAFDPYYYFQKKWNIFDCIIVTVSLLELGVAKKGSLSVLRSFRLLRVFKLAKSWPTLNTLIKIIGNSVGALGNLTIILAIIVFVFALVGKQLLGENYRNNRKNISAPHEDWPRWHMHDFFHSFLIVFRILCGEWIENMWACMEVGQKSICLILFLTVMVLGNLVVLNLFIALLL
Chain of human Nav 1.8 (Q9Y5Y9 1148-1722 limits assumed): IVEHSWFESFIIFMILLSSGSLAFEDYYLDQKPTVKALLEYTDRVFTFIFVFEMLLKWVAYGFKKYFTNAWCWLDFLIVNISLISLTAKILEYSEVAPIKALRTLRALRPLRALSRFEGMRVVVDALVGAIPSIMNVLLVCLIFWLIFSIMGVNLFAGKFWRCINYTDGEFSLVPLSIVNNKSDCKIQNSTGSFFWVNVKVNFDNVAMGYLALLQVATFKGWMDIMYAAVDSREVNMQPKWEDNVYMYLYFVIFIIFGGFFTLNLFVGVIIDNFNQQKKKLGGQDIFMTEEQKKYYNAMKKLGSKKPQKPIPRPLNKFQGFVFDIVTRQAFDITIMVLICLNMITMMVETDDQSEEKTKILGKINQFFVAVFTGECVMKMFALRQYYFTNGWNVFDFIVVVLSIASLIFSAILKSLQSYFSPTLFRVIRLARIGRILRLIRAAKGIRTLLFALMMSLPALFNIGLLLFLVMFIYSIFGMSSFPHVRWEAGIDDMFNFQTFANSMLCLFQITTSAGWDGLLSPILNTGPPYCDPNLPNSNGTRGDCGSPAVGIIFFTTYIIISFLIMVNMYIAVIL
As to `COc1c([C@H]2[C@H](C(=O)Nc3ccnc(C(=O)NC4CN(C)C4)c3)O[C@@](C)(C(F)(F)F)[C@H]2C)ccc(F)c1F` [Compound 275, 4-((2R,3S,4S,5R)-3-(3,4-difluoro-2-methoxyphenyl)-4,5-dimethyl-5-(trifluoromethyl)tetrahydrofuran-2-carboxamido)-N-(1-methylazetidin-3-yl)picolinamide], the IC50 is 0.01 to 0.1 µM. In the case of `COc1c([C@H]2[C@H](C(=O)Nc3ccnc(C(=O)N4C5CC4CN(C)C5)c3)O[C@@](C)(C(F)(F)F)[C@H]2C)ccc(F)c1F` [Compound 276, (2R,3S,4S,5R)-3-(3,4-difluoro-2-methoxyphenyl)-4,5-dimethyl-N-(2-(3-methyl-3,6-diazabicyclo[3.1.1]heptane-6-carbonyl)pyridin-4-yl)-5-(trifluoromethyl)tetrahydrofuran-2-carboxamide] it was 0.01 to 0.1 µM; in that of `COc1c([C@H]2[C@H](C(=O)Nc3ccnc(C(=O)N[C@H]4CCN(C)C4)c3)O[C@@](C)(C(F)(F)F)[C@H]2C)ccc(F)c1F` [Compound 277, 4-((2R,3S,4S,5R)-3-(3,4-difluoro-2-methoxyphenyl)-4,5-dimethyl-5-(trifluoromethyl)tetrahydrofuran-2-carboxamido)-N-((S)-1-methylpyrrolidin-3-yl)picolinamide], 0.01 to 0.1 µM; in that of `COc1c([C@H]2[C@H](C(=O)Nc3ccnc(C(=O)N4CC5CC(C4)N5C)c3)O[C@@](C)(C(F)(F)F)[C@H]2C)ccc(F)c1F` [Compound 278, (2R,3S,4S,5R)-3-(3,4-difluoro-2-methoxyphenyl)-4,5-dimethyl-N-(2-(6-methyl-3,6-diazabicyclo[3.1.1]heptane-3-carbonyl)pyridin-4-yl)-5-(trifluoromethyl)tetrahydrofuran-2-carboxamide], below 0.01 µM. The result for `COc1c([C@H]2[C@H](C(=O)Nc3ccnc(C(=O)N4C[C@H]5C[C@@H]4CN5C)c3)O[C@@](C)(C(F)(F)F)[C@H]2C)ccc(F)c1F` [Compound 279, (2R,3S,4S,5R)-3-(3,4-difluoro-2-methoxyphenyl)-4,5-dimethyl-N-(2-((1R,4R)-5-methyl-2,5-diazabicyclo[2.2.1]heptane-2-carbonyl)pyridin-4-yl)-5-(trifluoromethyl)tetrahydrofuran-2-carboxamide] reads 0.01 to 0.1 µM. The result for `COc1c([C@H]2[C@H](C(=O)Nc3ccnc(C(=O)N4CCN(C)C(C)(C)C4)c3)O[C@@](C)(C(F)(F)F)[C@H]2C)ccc(F)c1F` [Compound 280, (2R,3S,4S,5R)-3-(3,4-difluoro-2-methoxyphenyl)-4,5-dimethyl-5-(trifluoromethyl)-N-(2-(3,3,4-trimethylpiperazine-1-carbonyl)pyridin-4-yl)tetrahydrofuran-2-carboxamide] reads below 0.01 µM; that for `COc1c([C@H]2[C@H](C(=O)Nc3ccnc(C(=O)N[C@H]4CN(C)C[C@@H]4OC)c3)O[C@@](C)(C(F)(F)F)[C@H]2C)ccc(F)c1F` [Compound 281, 4-((2R,3S,4S,5R)-3-(3,4-difluoro-2-methoxyphenyl)-4,5-dimethyl-5-(trifluoromethyl)tetrahydrofuran-2-carboxamido)-N-((3S,4S)-4-methoxy-1-methylpyrrolidin-3-yl)picolinamide], 0.01 to 0.1 µM; that for `COc1c([C@H]2[C@H](C(=O)Nc3ccnc(C(=O)N4CCO[C@H]5CN(C)C[C@H]54)c3)O[C@@](C)(C(F)(F)F)[C@H]2C)ccc(F)c1F` [Compound 282, (2R,3S,4S,5R)-3-(3,4-difluoro-2-methoxyphenyl)-4,5-dimethyl-N-(2-((4aR,7aS)-6-methyloctahydropyrrolo[3,4-b][1,4]oxazine-4-carbonyl)pyridin-4-yl)-5-(trifluoromethyl)tetrahydrofuran-2-carboxamide], below 0.01 µM.

With `COc1c([C@H]2[C@H](C(=O)Nc3ccnc(C(=O)N4C[C@H]5CC[C@@H](C4)N(C)C5)c3)O[C@@](C)(C(F)(F)F)[C@H]2C)ccc(F)c1F` [Compound 283, (2R,3S,4S,5R)-3-(3,4-difluoro-2-methoxyphenyl)-4,5-dimethyl-N-(2-((1S,5S)-6-methyl-3,6-diazabicyclo[3.2.2]nonane-3-carbonyl)pyridin-4-yl)-5-(trifluoromethyl)tetrahydrofuran-2-carboxamide], the 50% inhibitory concentration (IC50) is below 0.01 µM. The result for `COc1c([C@H]2[C@H](C(=O)Nc3ccnc(C(=O)N4CC5COCC(C4)N5C)c3)O[C@@](C)(C(F)(F)F)[C@H]2C)ccc(F)c1F` [Compound 284, (2R,3S,4S,5R)-3-(3,4-difluoro-2-methoxyphenyl)-4,5-dimethyl-N-(2-(9-methyl-3-oxa-7,9-diazabicyclo[3.3.1]nonane-7-carbonyl)pyridin-4-yl)-5-(trifluoromethyl)tetrahydrofuran-2-carboxamide] reads below 0.01 µM; that for `COc1c([C@H]2[C@H](C(=O)Nc3ccnc(C(=O)N[C@H]4CN(C)CC[C@H]4OC)c3)O[C@@](C)(C(F)(F)F)[C@H]2C)ccc(F)c1F` [Compound 285, 4-((2R,3S,4S,5R)-3-(3,4-difluoro-2-methoxyphenyl)-4,5-dimethyl-5-(trifluoromethyl)tetrahydrofuran-2-carboxamido)-N-((3S,4R)-4-methoxy-1-methylpiperidin-3-yl)picolinamide], 0.1 to 1 µM. In the case of `COc1c([C@H]2[C@H](C(=O)Nc3ccnc(C(=O)N(C)[C@H]4CN(C)C[C@@H]4OC)c3)O[C@@](C)(C(F)(F)F)[C@H]2C)ccc(F)c1F` [Compound 286, 4-((2R,3S,4S,5R)-3-(3,4-difluoro-2-methoxyphenyl)-4,5-dimethyl-5-(trifluoromethyl)tetrahydrofuran-2-carboxamido)-N-((3S,4S)-4-methoxy-1-methylpyrrolidin-3-yl)-N-methylpicolinamide] it was below 0.01 µM; in that of `COC[C@H]1CN(C(=O)c2cc(NC(=O)[C@@H]3O[C@@](C)(C(F)(F)F)[C@@H](C)[C@H]3c3ccc(F)c(F)c3OC)ccn2)CCN1C` [Compound 287, (2R,3S,4S,5R)-3-(3,4-difluoro-2-methoxyphenyl)-N-(2-((R)-3-(methoxymethyl)-4-methylpiperazine-1-carbonyl)pyridin-4-yl)-4,5-dimethyl-5-(trifluoromethyl)tetrahydrofuran-2-carboxamide], below 0.01 µM. For `COc1c([C@H]2[C@H](C(=O)Nc3ccnc(C(=O)N4CCN(C)[C@H](C)C4)c3)O[C@@](C)(C(F)(F)F)[C@H]2C)ccc(F)c1F` [Compound 288, (2R,3S,4S,5R)-3-(3,4-difluoro-2-methoxyphenyl)-N-(2-((R)-3,4-dimethylpiperazine-1-carbonyl)pyridin-4-yl)-4,5-dimethyl-5-(trifluoromethyl)tetrahydrofuran-2-carboxamide], the IC50 is below 0.01 µM. The result for `COc1c([C@H]2[C@H](C(=O)Nc3ccnc(C(=O)N4C[C@@H](C)N(C)C[C@H]4C)c3)O[C@@](C)(C(F)(F)F)[C@H]2C)ccc(F)c1F` [Compound 289, (2R,3S,4S,5R)-3-(3,4-difluoro-2-methoxyphenyl)-4,5-dimethyl-5-(trifluoromethyl)-N-(2-((2R,5R)-2,4,5-trimethylpiperazine-1-carbonyl)pyridin-4-yl)tetrahydrofuran-2-carboxamide] reads 0.01 to 0.1 µM; that for `COc1c([C@H]2[C@H](C(=O)Nc3ccnc(C(=O)N[C@H]4C[C@@H](C)CN(C)C4)c3)O[C@@](C)(C(F)(F)F)[C@H]2C)ccc(F)c1F` [Compound 290, 4-((2R,3S,4S,5R)-3-(3,4-difluoro-2-methoxyphenyl)-4,5-dimethyl-5-(trifluoromethyl)tetrahydrofuran-2-carboxamido)-N-((3S,5R)-1,5-dimethylpiperidin-3-yl)picolinamide], 0.1 to 1 µM. For the molecule `CCO[C@H]1CN(C)C[C@@H]1NC(=O)c1cc(NC(=O)[C@@H]2O[C@@](C)(C(F)(F)F)[C@@H](C)[C@H]2c2ccc(F)c(F)c2OC)ccn1` [Compound 291, 4-((2R,3S,4S,5R)-3-(3,4-difluoro-2-methoxyphenyl)-4,5-dimethyl-5-(trifluoromethyl)tetrahydrofuran-2-carboxamido)-N-((3S,4S)-4-ethoxy-1-methylpyrrolidin-3-yl)picolinamide], the half-maximal inhibitory concentration (IC50) was 0.1 to 1 µM. The result for `CN[C@H]1CN(C(=O)c2cc(NC(=O)[C@@H]3O[C@@](C)(C(F)(F)F)[C@@H](C)[C@H]3c3ccc(F)c(F)c3OC)ccn2)C[C@H]1F` [Compound 292, (2R,3S,4S,5R)-3-(3,4-difluoro-2-methoxyphenyl)-N-(2-((3R,4S)-3-fluoro-4-(methylamino)pyrrolidine-1-carbonyl)pyridin-4-yl)-4,5-dimethyl-5-(trifluoromethyl)tetrahydrofuran-2-carboxamide] reads below 0.01 µM; that for `COc1c([C@H]2[C@H](C(=O)Nc3ccnc(C(=O)N4C[C@H](OC)[C@@H](N(C)C)C4)c3)O[C@@](C)(C(F)(F)F)[C@H]2C)ccc(F)c1F` [Compound 293, (2R,3S,4S,5R)-3-(3,4-difluoro-2-methoxyphenyl)-N-(2-((3S,4S)-3-(dimethylamino)-4-methoxypyrrolidine-1-carbonyl)pyridin-4-yl)-4,5-dimethyl-5-(trifluoromethyl)tetrahydrofuran-2-carboxamide], below 0.01 µM. The result for `COc1c([C@H]2[C@H](C(=O)Nc3ccnc(C(=O)N4C[C@@H](F)[C@@H](N(C)C)C4)c3)O[C@@](C)(C(F)(F)F)[C@H]2C)ccc(F)c1F` [Compound 296, (2R,3S,4S,5R)-3-(3,4-difluoro-2-methoxyphenyl)-N-(2-((3S,4R)-3-(dimethylamino)-4-fluoropyrrolidine-1-carbonyl)pyridin-4-yl)-4,5-dimethyl-5-(trifluoromethyl)tetrahydrofuran-2-carboxamide] reads below 0.01 µM.

As for `CN[C@H]1CN(C(=O)c2cc(NC(=O)[C@@H]3O[C@@](C)(C(F)(F)F)[C@@H](C)[C@H]3c3ccc(F)c(F)c3OC)ccn2)C[C@H]1OC` [Compound 297, (2R,3S,4S,5R)-3-(3,4-difluoro-2-methoxyphenyl)-N-(2-((3R,4S)-3-methoxy-4-(methylamino)pyrrolidine-1-carbonyl)pyridin-4-yl)-4,5-dimethyl-5-(trifluoromethyl)tetrahydrofuran-2-carboxamide], the IC50 is below 0.01 µM.

In general, IC50 refers to the midpoint of a concentration-inhibition curve.
